Results as given in paper PMC12863215, “The vacuolar transporters MaMATE11 and MaMATE14 affect blue flower coloration in grape hyacinth (Muscari)” (Horticulture Research, 2025).

Experiments:
[1] = tested on: T1, MaMATE11; assay: uptake into yeast microsomal vesicles, HPLC, Lineweaver-Burk; format: biochemical, Muscari aucheri; conditions: transport; 5 mM MgATP, 25 mM Tris-MES pH 8.0, 50 mM KCl, 25 °C, 20 min; minus-ATP subtracted
T1 construct: full-length cDNA in pYES2, expressed in Saccharomyces cerevisiae BY4741; microsomal vesicles; 441 residues; 10 predicted transmembrane segments

[2] = tested on: T2, MaMATE14; assay: as above; format: biochemical, Muscari aucheri; conditions: transport; 5 mM MgATP, 25 mM Tris-MES pH 8.0, 50 mM KCl, 25 °C, 20 min; minus-ATP subtracted
T2 construct: full-length cDNA in pYES2, expressed in Saccharomyces cerevisiae BY4741; microsomal vesicles; 510 residues; 12 predicted transmembrane segments

Row | Km [1] [µM] | Km [2] [µM] | Compound
1 | 57.4 | 43.8 | Oc1ccc([C@H]2Oc3cc(O)cc(O)c3C[C@H]2O)cc1 [(−)-epiafzelechin]
2 | 27 | 45.3 | OC[C@H]1O[C@@H](Oc2cc3c(O[C@@H]4O[C@H](CO)[C@@H](O)[C@H](O)[C@H]4O)cc(O)cc3[o+]c2-c2ccc(O)c(O)c2)[C@H](O)[C@@H](O)[C@@H]1O [cyanidin-3,5-di-O-glucoside]
3 | 57.5 | 61.4 | OC[C@H]1O[C@@H](Oc2cc3c(O)cc(O)cc3[o+]c2-c2ccc(O)c(O)c2)[C@H](O)[C@@H](O)[C@@H]1O [cyanidin-3-O-glucoside]

Row | Compound | Km [1] [µM] | Km [2] [µM]
4 | O=c1c(O)c(-c2ccc(O)cc2)oc2cc(O[C@@H]3O[C@H](CO)[C@@H](O)[C@H](O)[C@H]3O)cc(O)c12 [kaempferol 7-O-glucoside] | 60.2 | 57.4
